Measurements: patent US20140148419A1, “Treatment of Excessive Menstrual Bleeding Associated with Uterine Fibroids” (PREGLEM SA, priority 2011, published 2014)

System: premenopausal women with heavy uterine bleeding due to uterine fibroids
Assay: Double-blind, randomized, placebo-controlled clinical study; menstrual bleeding assessed by pictorial blood loss assessment chart (PBAC), with or without later uterine artery embolization (UAE)
Assay type: in vivo, human
Conditions: for % Patient with PBAC < 75 at baseline / PBAC at baseline: before treatment; for PBAC at baseline / PBAC 3 months after treatment stop / PBAC 6 months after treatment stop / PBAC at week 13 of treatment: Mean +/- SD
Description: A double-blind, randomized, placebo-controlled study was conducted to evaluate the long term effect of ulipristal acetate in the treatment of uterine fibroids. Patients included premenopausal women 18-50 years with heavy uterine bleeding due to uterine fibroids who were eligible for surgery. These patients met the criteria of a Pictorial Bleeding Assessment Chart (PBAC) score >100 during days 1-8 of menstruation.
The patients were randomized in a 2:2:1 manner to receive for 12 weeks, either ulipristal acetate (UPA) 5 mg or ulipristal acetate 10 mg or placebo. In addition, all patients received concomitant iron therapy (1 tablet of 80 mg or iron once daily, Tardyfero®). The reference to 2:2:1 means that for every 5 patients, two would be randomized to receive UA 5 mg, two to receive UA 10 mg and one to receive placebo.
Forty-eight patients received a daily placebo treatment, 95 patients received a daily dose of 5 mg ulipristal acetate (Esmya®), and 98 patients received a daily dose of 10 mg ulipristal acetate (Esmya®). […] Thirty-three subjects underwent a Uterine Artery Embolization at or after week 13: 4 patients in the placebo group (group 4), 11 patients in the 5 mg ulipristal (Esmya®) group (group 5) and 18 patients in the 10 mg ulipristal (Esmya®)) group (group 6).
For study enrollment as well as follow-up assessment, menstrual bleeding was assessed using the pictorial blood loss assessment chart (PBAC) developed by Higham and colleagues (Higham J M, O'Brien P M, Shaw R W. Assessment of menstrual blood loss using a pictorial chart. Br J Obstet Gynaecol 1990; 97:734-9). The PBAC is one of the current standard methods used to objectively estimate menstrual blood loss and diagnose menorrhagia. Abnormal bleeding is defined as PBAC score >100 over 8 days of menstruation. Normal menstrual bleeding PBAC is <75. Amenorrhea is PBAC=0.
The PBAC score was assessed before treatment (Baseline), at week 13 after the end of treatment with ulipristal, at 3 months and 6 months after […].
The PBAC and the % of patients with a PBAC <75 was reported before treatment (Baseline), at week 13 after the end of treatment with ulipristal, at 3 months and 6 months after the treatment stop.

[1] = 5 mg daily, no UAE or any other surgery (Group 2)
[2] = 5 mg daily, no UAE or any other surgery (Group 2), listed as ulipristal
[3] = 5 mg daily, with UAE (Group 5), listed as ulipristal
[4] = 10 mg daily, no UAE or any other surgery (Group 3)
[5] = 10 mg daily, no UAE or any other surgery (Group 3), listed as ulipristal
[6] = 10 mg daily, with UAE (Group 6)
[7] = 10 mg daily, with UAE (Group 6), listed as ulipristal
[8] = 5 mg daily, with UAE performed after treatment stop (Group 5)
[9] = 10 mg daily, with UAE performed after treatment stop (Group 6)

## CC(=O)O[C@]1(C(C)=O)CC[C@H]2[C@@H]3CCC4=CC(=O)CCC4=C3[C@@H](c3ccc(N(C)C)cc3)C[C@@]21C [Esmya, 17α-acetoxy-11β-[4-N,N-dimethylaminophenyl)-19-norpregna-4,9-diene-3,20-dione]
[1]
  % Patient with PBAC < 75, 3 months after end of treatment: 15%
  % Patient with PBAC < 75, 6 months after end of treatment: 17%
  % Patient with PBAC < 75 at week 13 of treatment: 98%
  % Patient with PBAC < 75 at baseline: 0%
  PBAC 3 months after treatment stop: 337 +/− 300
  PBAC 6 months after treatment stop: 338 +/− 233
  PBAC at week 13 of treatment: 13 +/− 69
[2]
  % Patient with PBAC < 75, 3 months after end of treatment: 15%
  % Patient with PBAC < 75 at week 13 of treatment: 98%
5 mg daily, with UAE (Group 5)
  % Patient with PBAC < 75, 3 months after end of treatment: 36%
  % Patient with PBAC < 75, 6 months after end of treatment: 27%
  % Patient with PBAC < 75 at week 13 of treatment: 100%
  % Patient with PBAC < 75 at baseline: 0%
[3]
  % Patient with PBAC < 75, 3 months after end of treatment: 36%
  % Patient with PBAC < 75, 6 months after end of treatment: 27%
  % Patient with PBAC < 75 at week 13 of treatment: 100%
[4]
  % Patient with PBAC < 75, 3 months after end of treatment: 17%
  % Patient with PBAC < 75, 6 months after end of treatment: 26%
  % Patient with PBAC < 75 at week 13 of treatment: 97%
  % Patient with PBAC < 75 at baseline: 0%
  PBAC 3 months after treatment stop: 417 +/− 669
  PBAC 6 months after treatment stop: 203 +/− 161
  PBAC at week 13 of treatment: 2 +/− 13
[5]
  % Patient with PBAC < 75, 3 months after end of treatment: 17%
  % Patient with PBAC < 75 at week 13 of treatment: 97%
[6]
  % Patient with PBAC < 75, 3 months after end of treatment: 60%
  % Patient with PBAC < 75, 6 months after end of treatment: 53%
  % Patient with PBAC < 75 at week 13 of treatment: 100%
  % Patient with PBAC < 75 at baseline: 0%
[7]
  % Patient with PBAC < 75, 3 months after end of treatment: 60%
  % Patient with PBAC < 75, 6 months after end of treatment: 53%
  % Patient with PBAC < 75 at week 13 of treatment: 100%
5 mg daily oral 12 weeks, no UAE or any other surgery (Group 2)
  PBAC at baseline: 419 +/− 281
5 mg daily oral 12 weeks, with UAE performed after treatment stop (Group 5)
  PBAC at baseline: 490 +/− 231
[8]
  PBAC 3 months after treatment stop: 202 +/− 102
  PBAC 6 months after treatment stop: 207 +/− 117
  PBAC at week 13 of treatment: 25 +/− 60
10 mg daily oral 12 weeks, no UAE or any other surgery (Group 3)
  PBAC at baseline: 340 +/− 187
10 mg daily oral 12 weeks, with UAE performed after treatment stop (Group 6)
  PBAC at baseline: 375 +/− 135
[9]
  PBAC 3 months after treatment stop: 120 +/− 55
  PBAC 6 months after treatment stop: 136 +/− 70
  PBAC at week 13 of treatment: 0 +/− 0
Oral ulipristal prior to UAE versus ulipristal alone and UAE alone
  effect for controlling menstrual bleeding resulting from oral administration prior to UAE: synergistic effect
